Measurements as given in patent US20210299282A1, “Device for Collecting and Culturing Fish Embryos and Method for Evaluating Combined Toxicity of Thiamethoxam and Tetraconazole” (priority 2020, published 2021).
In brackets after ≈: the same amount, converted by molar mass.

Columns and labels:
zebrafish embryos = assay: Toxicity test for single pesticide on zebrafish embryos (96 h semi-static exposure); assay type: in vivo, Zebrafish (Danio rerio); conditions: single pesticide treatment group; 96 h exposure (tetraconazole: high concentration group)
Experimental: (§1) S1: The embryo culture component 3 is assembled; toxicity exposure is performed after 3 hours post-fertilization (3 hpf) of embryos; after collecting the zebrafish embryos for 3 hours, the abnormal and dead embryos are removed, and the normally divided embryos are picked out under an inverted microscope, and the selected embryos are loaded in into the culture well 34 in an amount of 10 embryos per well; after removing the water as much as possible, 10 mL of single pesticide solution with different concentrations are added to each well in the treatment group separately, and an equal volume of standard dilution water is added to the blank control group and the solvent control group, respectively. Three replicates are set for each treatment group, blank control group and solvent control group, and every 2 wells are served as one replicate, that is, 20 embryos are one replicate. Each test pesticide is set with 5 to 7 concentrations using serial dilution method with a geometrical ratio, and each concentration is set with three repeats.
(§2) S2: The semi-static method is used, that is, the medium in the wells are replaced with fresh pesticide solution every 24 hours, and the dead embryos are picked out in time. When the medium is replaced with the fresh pesticide solution, the top plate 32 is pulled up, the original culture medium flows through the leakage hole 35 into the cavity of the cavity plate 31, and then the original culture medium is poured out together. Then, the top plate 32 is mounted on the cavity plate 31, and the fresh pesticide solution is added to the culture well 34 loaded with embryos.
(§3) S3: After 96 hours of toxicity exposure, the embryo mortality and poisoning symptoms are recorded. Embryo death was characterized by egg coagulation, somite disruption, non-detachment of tail or lack of heartbeat; common symptoms of embryo poisoning include the following deformities: egg coagulation, pericardial edema, yolk sac edema, spine curvature, tail bending, and others (FIG. 5). The mortality M is calculated according to the formula (I),
(§4) In formula (I), D is the number of dead embryos and N is the total number of embryos. DPS statistical analysis software (version number: V15.10) is used to statistically analyze the mortality data of zebrafish embryos with the probabilistic value analysis method, and the 50% lethal concentration LC50 and 95% confidence limits of the fish embryos are calculated.

[1] = as above; assay type: in vivo, Zebrafish (Danio rerio); conditions: zebrafish, in vivo; after 96 hours of exposure; single pesticide; embryos exposed from 3 hpf; read-out: LC50 and 95% confidence limits for zebrafish embryos when used alone
Experimental: as §1, §2, §3, §4

Compound	poisoning symptoms of zebrafish embryos (zebrafish embryos)	LC50 at 96 h [1] [µg/mL]
CN1COCN(Cc2cnc(Cl)s2)/C1=N\[N+](=O)[O-] [thiamethoxam]	not obvious	246 (≈ 844 µM)
FC(F)C(F)(F)OCC(Cn1cncn1)c1ccc(Cl)cc1Cl (stereo not shown) [tetraconazole]	pericardial edema, yolk sac edema, spine curvature, tail bending, and others were observed	11 (≈ 29.5 µM)
